Experimental data taken from patent US20220218614A1, “IONIZABLE CATIONIC LIPIDS AND LIPID NANOPARTICLES, AND METHODS OF SYNTHESIS AND USE THEREOF” (Tidal Therapeutics, Inc., priority 2020, published 2022).
Several values for one entry are separate records, joined by “and”; a condition that tells them apart may be missing. Equal entries are not always repeated. Entries after “also recorded” stand apart in the source; their conditions may differ.

Tests used:
[1] = tested on: human T cells in PBMC-engrafted NSG mice; test: In vivo reprogramming of immune cells with DiI LNP expressing GFP in PBMC-humanized NSG mice; set-up: species or system mouse; conditions: 24 h
Experimental: The NSG (NOD.Cg-Prkdcscid Il2rgtmlWjl/SzJ) mouse model was purchased from Jax Laboratories. 6-8 weeks old male mice were engrafted with 10 million PBMC of qualified donor in sterile PBS by tail vein injection. Individual body weight was monitored twice a week and blood samples were collected at appropriate interval to evaluate human immune cells engraftment.
50 μl blood was collected by tail vein bleed from each mouse. Red blood cells were lysed using Versalyse, RBC lysis solution following protocol as instructed by manufacturer (Beckman Coulter A09777). Cells were stained with hCD45 & hCD3 to determine the engraftment of human T-cells. After 15 days of PBMC injection, mice had anywhere from 30-60% huCD45+. These humanized mice were evaluated for reprogramming of immune cells by LNPs expressing DiI dye and GFP.
At time zero, mice (n=4 per group) were injected with GFP expressing DiI LNPs (by i. v. at 0.3 mg/kg or 0.1 mg/kg with appropriate buffer. At each time point, 24 or 48h depending on the example mice treated with either LNPs or buffer were sacrificed. Terminal blood and tissues collection was performed to determine DiI and GFP expression in different organs and immune cells as below.
At above specified timepoints, mice were anesthetized with CO2 before sample collection. For blood collection, the chest was opened to expose the heart. […]

[2] = Apparent pKa of LNPs by TNS fluorescent probe; assay type: physicochemical; conditions: LNP made with the named ionizable lipid; pH at 50% of maximum TNS fluorescence
Description: This example describes the fluorescent dye based method used for measurement of the apparent pKa of the lipid nanoparticles. Apparent pKa determines the nanoparticle surface charge under physiological pH conditions, typically a pKa value in the endosomal pH range (6-7.4) results in LNPs that are neutral or slightly charged at plasma or the extracellular space (pH 7.4) and become strongly positive under acidic endosomal environments. This positive surface charge drives fusion of the LNP surface with negatively charged endosomal membranes resulting in destabilization and rupture of the endosomal compartment and LNP escape into the cytosolic compartment, a critical step in cytosolic delivery of mRNA and protein expression via engagement of the cells ribosomal machinery.
The apparent pKa of LNPs made using ionizable Lipids 2, 5 (synthesized as described in example 1), 6 and 7 (synthesized using method analogous to Lipid 2, 5, respectively, except using diethyl amine instead of dimethyl amine to incorporate the tertiary amine head group) were determined by 6-(p-Toluidino)-2-naphthalenesulfonic acid (TNS) fluorescence measurement in aqueous buffers covering a range of pH values (pH 4-pH 10). TNS is non-fluorescent when free in solution, but which fluoresces strongly when associated with a positively charged lipid nanoparticle. At a pH values below the pKa of the nanoparticle, positive LNP surface charge results in dye recruitment at the particle interface resulting in TNS fluorescence. At pH values above the LNP pKa no fluorescence is observed. The apparent pKa of the LNP is reported as the pH at which the fluorescence is at 50% of its maximum, as determined using a four-point logistic curve fit.

[3] = Zeta potential of LNPs by laser Doppler electrophoresis in 5 mM pH 5.5 MES and 5 mM pH 7.4 HEPES buffer; assay type: physicochemical; conditions: pH 5.5 MES and pH 7.4 HEPES buffer
Experimental: (§1) Samples of the LNPs produced in Example 2 were characterized to determine the average hydrodynamic diameter, zeta potential, and mRNA content (total and dye-accessible). The hydrodynamic diameter was determined by dynamic light scattering (DLS) using a Zetasizer model ZEN3600 (Malvern Pananalytical, UK). The zeta potential was measured in 5 mM pH 5.5 MES buffer and 5 mM pH 7.4 HEPES buffer by laser Doppler electrophoresis using the Zetasizer.

[4] = Hydrodynamic diameter and polydispersity of LNPs by dynamic light scattering (DLS), Zetasizer; assay type: physicochemical
Experimental: as §1

[5] = Quant-iT RiboGreen RNA assay: dye accessible and total (Triton) mRNA content, encapsulation; assay type: physicochemical
Experimental: RNA content of the nanoparticles is measured using Thermo Fisher Quant-iT RiboGreen RNA Assay Kit. Dye accessible RNA, which includes both non-incorporated RNA and RNA that is near the surface of the nanoparticle, is measured by diluting the nanoparticles to approximately 1 μg/mL mRNA using HEPES buffered saline, and then adding Quant-iT reagent to the mixture. Total RNA content is measured by diluting the particles to 1 μg/mL mRNA using HEPES buffered saline, disrupting the nanoparticles by heating them to 60° C. for 30 minutes in HEPES buffered saline containing 0.5% Triton, and then adding Quant-It reagent. RNA is quantified by measuring fluorescence at 485/535 nm, and concentration is determined relative to a contemporaneously run RNA standard curve.

[6] = Table 10: Lipid 5 and Lipid 7 LNP, theoretical total mRNA 50 μg/mL

## CCCCC/C=C\C/C=C\CCCCCCCC(=O)OC[C@H](CCN(C)C)OC(=O)CCCCCCC/C=C\C/C=C\CCCCC [Lipid 5]
[1]; 0.1 mg/kg, CD3 (hsp34) targeted LNP, DPG-PEG-1.5%
  GFP expression of T cells in blood and lung: about 25%
[1]; 0.3 mg/kg (0.1 mg/kg in Example 30)
  in vivo reprogramming (GFP, DiI) of T cells, in words: superior for reprogramming T cells
[2]
  apparent pKa of LNP (TNS): 6.9 and ~7
[3]
  LNP surface charge (zeta potential), in words: positive zeta potential at pH 5.5, and either near neutral or slightly negative charge at pH 7.4
[4]
  polydispersity after antibody conjugate insertion: < 0.15
[4]; insertion of anti-CD3 hSP34-PEG2k-DSPE conjugate
  change in particle size and PDI upon conjugate insertion: larger change in hydrodynamic diameter (relative to Lipid 7 LNP); also recorded: larger change in hydrodynamic diameter (relative to Lipid 8 LNP)
[5]; Table 10: Lipid 5 and Lipid 7 LNP
  % Dye Accessible mRNA: 23%
[5]; [6]
  Measured total (Triton method) mRNA: 43 µg/mL
  Ribogreen Dye Accessible mRNA: 10 µg/mL
[5]; Table 11A: Lipid 5, Lipid 8 and DLn-MC3-DMA LNP, vortexer mixing, theoretical total mRNA 42.5 ug/mL
  Measured total (Triton method) mRNA: 27 µg/mL
[5]; Table 11A: vortexer mixing, theoretical total mRNA 42.5 ug/mL
  Ribogreen Dye Accessible mRNA: 4 µg/mL
